Laboratory results taken from patent US6337314B1, “Mammalian-derived peptides for the treatment of microbial infections” (Theragem, Inc., priority 1997, dated 2002).
Where two headings read alike, the source gives them in different places. Marks after values point to notes of the source that are not given here. No end group written: not given here.

Key:
Type in all cases: cell-based
Candida albicans = test system: Candida albicans
Method: (§1) Staphylococcus aureus was strain RN6390, Pseudomonas aeruginosa was strain PA01, Escherichia coli was strain MC4100, Streptococcus faecalis was ATCC 8043 and Candida albicans was a clinical isolate from the Presbyterian Hospital.
B. Radial diffusion assay
The fungus is grown for 3 hrs from an overnight culture in Sabouraud dextrose broth, centrifuged at 10,000 g for 10 min, washed twice in NaPB pH 5.5, and resuspended in NaPB (pH 5.5) at a final concentration of 4×10^7/ml. A 0.1 ml aliquot of this fungal suspension (4×10^6 CFU) is added to 10 ml of autoclaved and cooled to (42° C.) NaPB pH 5.5 containing 1% w/v of low electroendosmosis type agarose (Sigma). After mixing the fungus in, the agar is poured into Lab-Tek square Petri dishes to form a uniform 1 mm thick layer. Wells with a 3 mm diameter are punched in and filled with 5 μl of control or sample, the plates are incubated for 3 hrs at 37° C. and overlaid with 10 ml of sterile agar maintained at 42° C. The overlay agar is 2× Sabouraud agar. After incubation of 18-24 hrs at 37° C., the diameter of the clear zone surrounding the wells containing an antifungal agent is measured.
(§2) Measurement of the antimicrobial activity of human hemoglobin, its heme-free α and β chains, CNBr-derived fragments of the α and β chains, and synthetic peptides derived therefrom were determined by radial diffusion assay and in some cases by plate assay. […] MIC is estimated by linear extrapolation of data points to an intercept with the x axis.
(§3) Each assay was performed with 3 experimental runs except where indicated. […] The assay method was patterned after that of Lee et al (23).

Escherichia coli MC4100 [1] = test system: Escherichia coli MC4100
Source text: as §1
D. Radial diffusion assay for antibiotic activity against Escherichia coli MC4100
A single colony of Escherichia coli MC4100 is inoculated into trypicase soy broth and grown to mid-exponential phase (OD600−0.7). The cultures are washed in NaPB pH 5.5 and dissolved to a final concentration of 5×10^7CFU/ml. A 0.2 ml aliquot of this bacterial suspension (10^7CFU/ml) is added to 10 ml of autoclaved and cooled (to 42° C.) NaPB containing 0.02% Bovine Serum Albumin (BSA) and 0.02% Triton X100., 1% w/v of low electroendosmosis type agarose (Sigma). After mixing the bacteria in, the agarose is poured into Lab-Tek square Petri dishes to form a uniform thick layer. Wells with a 2.7 mm diameter are punched in and filled with 4.5 ul of control or sample, the plates are incubated for 3 hours at 37° C., and overlaid with 10 ml of sterile agar maintained at 42° C. The overlay agar is 6% (w/v) TSB and 1% w/v Bacto-agar. After incubation for 18-24 hours at 37° C., the diameter of the clear zone surrounding the wells containing an antibacterial agent is measured.
as §2, §3

[2] = test system: Staphylococcus aureus RN6390; assay: Radial diffusion assay for antibiotic activity against Staphylococcus aureus RN6390; settings: pH 5.5, radial diffusion
Source text: Staphylococcus aureus was strain RN6390, Pseudomonas aeruginosa was strain PA01, Escherichia coli was strain MC4100, Streptococcus faecalis was ATCC 8043 and Candida albicans was a clinical isolate from the Presbyterian Hospital. B. Radial diffusion assay for antibiotic activity against Staphylococcus aureus RN6390 A single colony of Staphylococcus aureus RN6390 is inoculated into CYGP broth and grown to mid-exponential phase (OD600=0.7). The cultures are washed in NaPB pH 5.5 and dissolved to a final concentration of 5×10^7 CFU/ml. A 0.2 ml aliquot of this bacterial suspension (10^7 CFU) is added to 10 ml of autoclaved and cooled (to 42° C.) NaPB buffer, 1% w/v of low electroendosmosis type agarose (Sigma). After mixing the bacteria in, the agarose is poured in Lab-Tek square Petri dishes to form a uniform thick layer. Wells with a 2.7 mm diameter are punched in and filled with 4.5 ul of control or sample, the plates are incubated for 3 hours at 37° C., and overlaid with 10 ml of sterile agar maintained at 42° C. The overlay agar is 2× CYGP broth and 1% w/v Bacto-agar. After incubation for 18-24 hours at 37° C., the diameter of the clear zone surrounding the wells containing an antibacterial agent is measured. Measurement of the antimicrobial activity of human hemoglobin, its heme-free α and β chains, CNBr-derived fragments of the α and β chains, and synthetic peptides derived therefrom were determined by radial diffusion assay and in some cases by plate assay. […] MIC is estimated by linear extrapolation of data points to an intercept with the x axis. Each assay was performed with 3 experimental runs except where indicated. The radial diffusion assay is reliable and gives consistent results when used with the purified or semipurified compositions of the invention. The assay method was patterned after that of Lee et al (23).

[3] = test system: Streptococcus faecalis ATCC 8043; assay: Radial diffusion assay for antibiotic activity against Streptococcus faecalis ATCC 8043
Method: as §1
E. Radial diffusion assay for antibiotic activity against Streptococcus faecalis ATCC 8043
A single colony is inoculated in 10 mL of TSB overnight shaking at 37C. Approximately 0.3 ml is added to 10 mL fresh TSB and shaken at 37° C. This is allowed to grow to mid-log phase (OD600=0.6). The culture is washed 2× in NaPB pH 5.5 by spinning at 5000 rpm. for 10 min. OD is rechecked after washing to determine exact bacterial concentration. The washed bacteria are added at a concentration of 10^7/plate to the lower layer (NaPB pH 5.5/1% Low Electroendosmosis agarose). Dilutions of Hemoglobin dilutions in NaPB pH 5.5 are added to the plate, allowed to diffuse in the layer, and incubated in wet box at 37C for 3 hours. Following the incubation, 10 mL of nutrient medium, 6% TSB and 1% Bactoagar, is added as a top layer and plates are incubated in the wet box overnight at […].
as §2
Each assay was performed with 3 experimental runs except where indicated. The radial diffusion assay is reliable and gives consistent results when used with the purified or semipurified compositions of the invention. The assay method was patterned after that of Lee et al (23).

[4] = test system: Pseudomonas aeroginosa PA01; assay: Radial diffusion assay for antibiotic activity against Pseudomonas aeroginosa PA01; settings: Pseudomonas aeruginosa
Method: Staphylococcus aureus was strain RN6390, Pseudomonas aeruginosa was strain PA01, Escherichia coli was strain MC4100, Streptococcus faecalis was ATCC 8043 and Candida albicans was a clinical isolate from the Presbyterian Hospital. C. Radial diffusion assay for antibiotic activity against Pseudomonas aeroginosa PA01 A single colony of Pseudomonas aeroginosa PA01 is inoculated into trypticase soy broth and grown to mid-exponential phase (OD600−0.7). […] A 0.2 ml aliquot of this bacterial suspension (10^7CFU/ml) is added to 10 ml of autoclaved and cooled (to 42° C.) NaPB buffer, 1% w/v of low electroendosmosis type agarose (Sigma). After mixing the bacteria in, the agarose is poured in Lab-Tek square Petri dishes to form a uniform thick layer. Wells with a 2.7 mm diameter are punched in and filled with 4.5 ul of control or sample, the plates are incubated for 3 hours at 37° C., and overlaid with 10 ml of sterile agar maintained at 42° C. The overlay agar is 6% (w/v) TSB and 1% w/v Bacto-agar. After incubation for 18-24 hours at37° C., the diameter of the clear zone surrounding the wells containing an antibacterial agent is measured. Measurement of the antimicrobial activity of human hemoglobin, its heme-free α and β chains, CNBr-derived fragments of the α and β chains, and synthetic peptides derived therefrom were determined by radial diffusion assay and in some cases by plate assay. […] MIC is estimated by linear extrapolation of data points to an intercept with the x axis. Each assay was performed with 3 experimental runs except where indicated. The radial diffusion assay is reliable and gives consistent results when used with the purified or semipurified compositions of the invention. The assay method was patterned after that of Lee et al (23).

Escherichia coli MC4100 [5] = settings: pH 7.4, radial diffusion
[6] = Candida albicans, pH 5.5, radial diffusion
[7] = Streptococcus faecalis, pH 5.5, radial diffusion
[8] = Escherichia coli, pH 5.5, radial diffusion
[9] = Streptacoccus faecalis, Table 2 CNBr cleavage products, pH not given in table (method NaPB pH 5.5)
[10] = Escherichia coli, Table 2 CNBr cleavage products, pH not given in table (method NaPB pH 5.5)
[11] = Candida albicans, Table 2 CNBr cleavage products, pH not given in table (method NaPB pH 5.5)

Substance | Minimum Inhibitory Concentration (MIC) (Candida albicans; [6]) [mg/L] | Minimum Inhibitory Concentration (MIC) [2] [mg/L] | Minimum Inhibitory Concentration (MIC) [3, 7] | Minimum Inhibitory Concentration (MIC) (Escherichia coli MC4100 [1]; [8]) [mg/L] | Minimum Inhibitory Concentration (MIC) ([4]; pH 5.5, radial diffusion) [mg/L] | Minimum Inhibitory Concentration (MIC) [3, 9] [µg/mL] | Minimum Inhibitory Concentration (MIC) (Escherichia coli MC4100 [1]; [10]) [mg/L] | Minimum Inhibitory Concentration (MIC) (Candida albicans; [11]) [mg/L] | also measured
GNPKVKAHGKKVLGAFS [Peptide I] | – | – | – | – | – | – | – | – | Minimum Inhibitory Concentration (MIC) (Candida albicans; 3 h, pH 5.5): 10 mg/L; Minimum Inhibitory Concentration (MIC) (Escherichia coli MC4100 [1]; MC4100, pH 5.5): 15 mg/L
Hemoglobin: Human hemoglobin (MW=64,500), two α and two β chains with four heme groups; crude Hb purchased from Sigma Chemicals | 50 to 70 | 4 to 6 | 200 to 1000 µg/mL | 1 to 5 | 5 | – | – | – | Minimum Inhibitory Concentration (MIC) ([4]; pH 7.4, radial diffusion): 50 mg/L; Minimum Inhibitory Concentration (MIC) (Escherichia coli MC4100 [5]): 35 to 100 mg/L
α chains: Heme-free α chain of human hemoglobin, 141 amino acid residues, SEQ ID NO:10, separated by C4 reverse-phase HPLC | 7 | 300 | 3* μg/ml | 1 to 2 | 50 | – | – | – | –
α-1: CNBr cleavage fragment of human hemoglobin α chain, residues 1-32, SEQ ID NO:7 | – | – | – | – | – | 100 | >100 | – | –
α-2: CNBr cleavage fragment of human hemoglobin α chain, residues 33-76, SEQ ID NO:8 | – | – | – | – | – | – | >100 | – | –
α-3: CNBr cleavage fragment of human hemoglobin α chain, residues 77-141, SEQ ID NO:3 | – | – | – | – | – | 7 | 5 to 8 | 10 to 50 | –
β chains: Heme-free β chain of human hemoglobin, 146 amino acid residues, SEQ ID NO:1, separated by C4 reverse-phase HPLC | >50 | 10 | 20 µg/mL | 1.5 to 5 | 40 to 60 | – | – | – | Minimum Inhibitory Concentration (MIC) (Escherichia coli MC4100 [5]): 10 to 30 mg/L
β-1: CNBr cleavage fragment of human hemoglobin β chain, residues 1-55, SEQ ID NO:9 | – | – | – | – | – | >50 | >100 | 25 | –
β-2: CNBr cleavage fragment of human hemoglobin β chain, residues 56-146, SEQ ID NO:2 | – | – | – | – | – | 8 | 5 | 25 | activity against C. albicans (in words) (Candida albicans; C. albicans): highly active; activity against E. coli (in words) (Escherichia coli MC4100 [1]; E. coli): highly active
